{
  "source": "patent US20240181087A1",
  "about": "“COMPOSITION FOR CONTRAST IMAGING OF CANCER” (ASTELLAS PHARMA INC., priority 2021, published 2024)",
  "key": {"[1]": {"tested_on": "human tongue cancer cells CAL27", "assay": "near-infrared fluorescence imaging after topical administration into tumor, human tongue cancer subcutaneous transplant model", "assay_type": "in vivo", "settings": "SCID mouse, 0.02 to 0.1 mL of 1 mg/mL, immediately after and 50 minutes after administration", "experimental": "(§1) A human cancer cell transplant model mouse was created as follows: • (Head and neck/tongue cancer) To immunodeficient SCID mice (weight: 17 g to 23 g), about 10^6 human tongue cancer cells CAL27 (purchased from American Type Culture Collection: ATCC) were subcutaneously administered, and the resultant mice were grown for 49 days to create tumor models. • (Brain cancer/neuroblastoma) To immunodeficient SCID mice (weight: 17 g to 23 g), about 10^6 human neuroblastoma cells SH-SY5Y (purchased from ATCC) were subcutaneously administered, and the resultant mice were grown for 90 days to create tumor models. • (Brain cancer/glioblastoma) To immunodeficient SCID mice (weight: 17 g to 23 g), about 10^6 human glioblastoma cells U-251MG (obtained from European Collection of Authenticated Cell Cultures) were subcutaneously administered, and the resultant mice were grown for 90 days to create tumor models.\n(§2) Subsequently, to the tumor of each of the mouse models, 0.02 to 0.1 mL of a saline containing the compound III (concentration of the compound III: 1 mg/mL) was topically administered, and fluorescence imaging was conducted transdermally with a near-infrared fluorescence camera (Fluobeam, manufactured by Fluoptics) (excitation wavelength: 780 nm, detection wavelength: 800 nm or more)."}, "[2]": {"tested_on": "renal epithelial cell carcinoma", "assay": "near-infrared fluorescence imaging of kidney with tumor/pretumor induced with ferric nitrilotriacetate", "assay_type": "in vivo, rat", "experimental": "A kidney cancer […] model was created based on a method reported by Okada et al., (Okada et al., Jpn. Arch. Int. Med., 1982, 29, 485). Specifically, rats (280 g to 320 g) were bred after continuously intraperitoneally administering ferric nitrilotriacetate to the rats for 6 months, and thus, renal epithelial cell carcinoma was induced therein.\nEach of the rats was anesthetized by intraperitoneally administering pentobarbital sodium salt, a saline containing the compound III was administered to the tail vein (dose of the compound: 0.75 mg/kg of the rat), and 30 minutes, 3 hours, or 24 hours after the administration, the rat was subjected to laparotomy to perform near-infrared fluorescence imaging of the kidney with a near-infrared fluorescence imaging device (PDE, manufactured by Hamamatsu Photonics K.K.) (FIG. 11). Besides, the kidney having been subjected to the near-infrared fluorescence imaging was excised from the body, and the cross section was subjected to near-infrared fluorescence imaging (FIG. 12). Three rats each were used at each of the above-described timings after the administration, and nine rats were used in total.\nBesides, a specimen for microscopic observation was created through ethanol immobilization, section creation, hematoxylin/eosin staining for performing observation in bright field and near-infrared fluorescence (FIG. 13). […] Thus, tumor embedded in surrounding tissues could be detected."}, "[3]": {"tested_on": "human glioblastoma cells U-251MG", "assay": "near-infrared fluorescence imaging after topical administration into tumor, human glioblastoma subcutaneous transplant model", "assay_type": "in vivo", "settings": "U-251MG glioblastoma, SCID mouse, 0.02 to 0.1 mL of 1 mg/mL, 1 hour after administration", "experimental": "as §1, §2"}, "[4]": {"tested_on": "mouse bladder cancer cell MB49", "assay": "near-infrared fluorescence observation of bladder after tail vein administration, MB49 bladder cancer mouse model", "assay_type": "in vivo", "experimental": "Two bladder cancer mouse models (weight: about 20 g), having mouse bladder cancer cell MB49 transplanted in the bladder mucosa, and then grown for 3 weeks or 4 weeks, were used. To the tail vein of each of the mice, 0.2 mL of a saline containing the compound III (concentration of the compound III: 0.075 mg/mL) was administered, and after 1 day, the mouse was subjected to laparotomy under anesthesia by subcutaneous administration of ketamine (75 mg/kg) and medetomidine (1 mg/kg), and near-infrared fluorescence observation was performed with a near-infrared fluorescence imaging device (pde-neo, manufactured by Hamamatsu Photonics K.K., excitation wavelength: 760 nm, detection wavelength: fluorescence of 800 nm or more, the same applies hereinafter) (FIG. 1, right: near-infrared fluorescence image).\nAs a comparative example, a saline containing the compound III was administered to the tail vein of a normal mouse (weight: about 20 g), and after 1 day, the mouse was subjected to laparotomy under anesthesia by subcutaneous administration of ketamine (75 mg/kg) and medetomidine (1 mg/kg), and near-infrared fluorescence observation was performed with a near-infrared fluorescence imaging device (pde-neo, manufactured by Hamamatsu Photonics K.K.) (FIG. 2).\nTwo bladder cancer model mice (weight: about 20 g), having mouse bladder cancer cell MB49 transplanted in the bladder mucosa, and then grown for 3 weeks or 4 weeks, were used. To the tail vein of each of the mice, 0.2 mL of a saline containing the compound III (concentration of the compound III: 0.075 mg/mL) was administered. One day after the administration, the mouse was subjected to laparotomy under anesthesia by subcutaneous administration of ketamine (75 mg/kg) and medetomidine (1 mg/kg), and under observation of near-infrared fluorescence with a near-infrared fluorescence imaging device (pde-neo, manufactured by Hamamatsu Photonics K.K.), a cancer tissue site emitting near-infrared fluorescence was taken out for near-infrared fluorescence observation (FIG. 5, right: near-infrared fluorescence image). […]"}, "[5]": {"settings": "ferric nitrilotriacetate rat, tail vein 0.75 mg/kg, excised kidney"}},
  "data": [
    {"smiles": "COC1=C(/C=C/C2=[N+](CCC(=O)NCCCO[C@H]3[C@H]4O[C@H]5[C@H](O)[C@@H](O)[C@@H](O[C@H]6[C@H](O)[C@@H](O)[C@@H](O[C@H]7[C@H](O)[C@@H](O)[C@@H](O[C@H]8[C@H](O)[C@@H](O)[C@@H](O[C@H]9[C@H](O)[C@@H](O)[C@@H](O[C@H]%10[C@H](O)[C@@H](O)[C@@H](O[C@@H]([C@@H]3O)[C@@H](CO)O4)O[C@@H]%10CO)O[C@@H]9CO)O[C@@H]8CO)O[C@@H]7CO)O[C@@H]6CO)O[C@@H]5CO)c3ccc4ccccc4c3C2(C)C)CCC/C1=C\\C=C1\\N(CCC(=O)NCCCO[C@H]2[C@H]3O[C@H]4[C@H](O)[C@@H](O)[C@@H](O[C@H]5[C@H](O)[C@@H](O)[C@@H](O[C@H]6[C@H](O)[C@@H](O)[C@@H](O[C@H]7[C@H](O)[C@@H](O)[C@@H](O[C@H]8[C@H](O)[C@@H](O)[C@@H](O[C@H]9[C@H](O)[C@@H](O)[C@@H](O[C@@H]([C@@H]2O)[C@@H](CO)O3)O[C@@H]9CO)O[C@@H]8CO)O[C@@H]7CO)O[C@@H]6CO)O[C@@H]5CO)O[C@@H]4CO)c2ccc3ccccc3c2C1(C)C.[Cl-]", "note": "[compound III, 3-(3-{[3-(cyclomaltoheptaose-21-O-yl)propyl]amino}-3-oxopropyl)-2-{(1E)-2-[(3E)-3-{(2E)-2-[3-(3-{[3-(cyclomaltoheptaose-21-O-yl)propyl]amino}-3-oxopropyl)-1,1-dimethyl-1,3-dihydro-2H-benzo[e]indol-2-ylidene]ethylidene}-2-methoxycyclohexa-1-en-1-yl]ethene-1-yl}-1,1-dimethyl-1H-benzo[e]indol-3-ium chloride]", "values": [
      {"measurement": "retention inside the tumor (fluorescence imaging)", "setting": "[1]", "value": "retained inside the tumor"},
      {"measurement": "near-infrared fluorescence micro image of kidney tissue section", "setting": "[2]; ferric nitrilotriacetate rat, near-infrared fluorescence microscope, section 3 hours after administration", "value": "strong near-infrared fluorescence was found locally in a non-neoplastic degeneration site, a pre-neoplastic degeneration site, and a neoplastic degeneration site"},
      {"measurement": "near-infrared fluorescence macro image of the surface of the kidney having tumor and pretumor", "setting": "[2]; ferric nitrilotriacetate rat, tail vein 0.75 mg/kg, 30 minutes, 3 hours or 24 hours after administration", "value": "strong fluorescence was locally found in a dotted manner"},
      {"measurement": "near-infrared fluorescence image of kidney cross section: dotted fluorescence in renal medulla", "setting": "[2]; [5]", "value": "not observed"},
      {"measurement": "near-infrared fluorescence image of kidney cross section: renal cortex", "setting": "[2]; [5]", "value": "a site exhibiting strong fluorescence in a dotted manner was observed"},
      {"measurement": "aspect of dotted strong fluorescence in normal kidney", "setting": "[2]; normal rat, tail vein 0.75 mg/kg", "value": "not observed"},
      {"measurement": "retention inside the tumor (fluorescence imaging)", "setting": "[3]", "value": "retained inside the tumor"},
      {"measurement": "excision of tumor tissue with fluorescence emitted from the cancer tissue used as a guide", "setting": "[4]; MB49 bladder cancer mouse model, 0.2 mL saline 0.075 mg/mL, 1 day after administration", "value": "could be appropriately excised"},
      {"measurement": "near-infrared fluorescence in cancer tissue of the bladder", "setting": "[4]; MB49 bladder cancer mouse model, 0.2 mL saline 0.075 mg/mL, after 1 day, laparotomy", "value": "specifically observed"},
      {"measurement": "near-infrared fluorescence of normal tissue (bladder)", "setting": "[4]; normal mouse, after 1 day, laparotomy", "value": "did not emit near-infrared fluorescence"}
    ]}
  ]
}
